A short description of data set [1]: Lipophilicity HPLC determination (logk). It is filed as physicochemical. Conditions: HPLC capacity factor, C18, MeOH 70%/H2O 30%, 30 °C.
The test system of data set [2] is PET in spinach chloroplasts. As to the kind of experiment: Photosynthetic electron transport (PET) inhibition, DCPIP photoreduction. Format: biochemical, Spinacia oleracea L. Conditions: for IC50: DCPIP photoreduction. As to the method:
The inhibition of photosynthetic electron transport (PET) in spinach chloroplasts was determined spectrophotometrically (Genesys 6, Thermo Scientific, Madison, WI, USA) using an artificial electron acceptor 2,6-dichlorophenol-indophenol (DCPIP). The rate of photosynthetic electron transport was monitored as a photoreduction of DCPIP. Chloroplasts were prepared from Spinacia oleracea L.. The measurements were carried out in phosphate buffer (0.02 mol/L, pH 7.2) containing sucrose (0.4 mol/L), MgCl2 (0.005 mol/L) and NaCl (0.015 mol/L). The chlorophyll concentration was 30 mg/L and the samples were irradiated (~100 W/m^2 with 10 cm distance) with a halogen lamp (250 W). […] The studied compound were dissolved in DMSO due to their limited water solubility. […] The efficiency of studied compounds was expressed as 50% inhibition concentration relative to the untreated control. The standard for these measurements was DCMU (Diurone®).

The compound “3-(Piperidin-1-ylamino)pyrazine-2-carboxamide [Compound 15]” gave a logk in data set [1] of −0.2333. The “PET inhibition (result in words)” value in data set [2] is reported as “did not inhibit PET”.
The compound “3-(Pyrrolidin-1-ylamino)pyrazine-2-carboxamide [Compound 14]” registered a logk in data set [1] of −0.4889. In data set [2], the “PET inhibition (result in words)” value was “did not inhibit PET”.
Take `CNc1nccnc1C(N)=O` [Compound 1, 3-(Methylamino)pyrazine-2-carboxamide]: in data set [1], the logk is listed as −0.4028. In addition, the “PET inhibition (result in words)” value in data set [2] is on record as “did not inhibit PET”.
On the same counts, the results for `CCNc1nccnc1C(N)=O` [Compound 2, 3-(Ethylamino)pyrazine-2-carboxamide] are −0.2014 and “did not inhibit PET”.
`CCCNc1nccnc1C(N)=O` [Compound 3, 3-(Propylamino)pyrazine-2-carboxamide]: the logk in data set [1] is given as 0.0038. The same compound had an IC50 in data set [2] of 1590 µM.
On the same counts, the results for `CCC(C)(C)Nc1nccnc1C(N)=O` [Compound 6, 3-(tert-Pentylamino)pyrazine-2-carboxamide] are 0.5468 and 480 µM.
For the compound `CCCCCCCCNc1nccnc1C(N)=O` [Compound 9, 3-(Octylamino)pyrazine-2-carboxamide], the logk in data set [1] is 1.1533. Besides, the IC50 in data set [2] is 14.3 µM.
As to `CCCCN(CCCC)c1nccnc1C(N)=O` [Compound 10, 3-(Dibutylamino)pyrazine-2-carboxamide], the logk in data set [1] was determined as 0.5197. For the same compound, in data set [2], the “PET inhibition (result in words)” value was “did not inhibit PET”.
`NC(=O)c1nccnc1N1CCOCC1` [Compound 16, 3-(Morpholin-4-yl)pyrazine-2-carboxamide] gave a logk in data set [1] of −0.6238. In data set [2], the “PET inhibition (result in words)” value is reported as “did not inhibit PET”.
On the same counts, the results for `CN1CCN(c2nccnc2C(N)=O)CC1` [Compound 17, 3-(4-Methylpiperazin-1-yl)pyrazine-2-carboxamide] are −0.4253 and “did not inhibit PET”.
On the same counts, the results for `NC(=O)c1nccnc1N1CCNCC1` [Compound 18, 3-(Piperazin-1-yl)pyrazine-2-carboxamide] are −2.3522 and “did not inhibit PET”.
Take `CN(C)C(=O)Nc1ccc(Cl)c(Cl)c1` [DCMU, 3-(3,4-dichlorophenyl)-1,1-dimethylurea, reference compound]: in data set [2], inhibition was half-maximal at 1.9 µM (IC50). This lies in the single-digit micromolar range.

Usually IC50 stands for the point on the concentration scale where inhibition reaches its midpoint.

Source of the values: PMC6271988, “New Potentially Active Pyrazinamide Derivatives Synthesized Under Microwave Conditions” (Molecules, 2014).
